We go through 13 molecules from patent US7572817B2, “2,5-disubstituted 3-mercaptopentanoic acid” (AstraZeneca AB, priority 2002, dated 2009).

For the test, the target named is T1, carboxypeptidase U (Homo sapiens, UniProt Q96IY4).
T1 sequence (Q96IY4 115-423): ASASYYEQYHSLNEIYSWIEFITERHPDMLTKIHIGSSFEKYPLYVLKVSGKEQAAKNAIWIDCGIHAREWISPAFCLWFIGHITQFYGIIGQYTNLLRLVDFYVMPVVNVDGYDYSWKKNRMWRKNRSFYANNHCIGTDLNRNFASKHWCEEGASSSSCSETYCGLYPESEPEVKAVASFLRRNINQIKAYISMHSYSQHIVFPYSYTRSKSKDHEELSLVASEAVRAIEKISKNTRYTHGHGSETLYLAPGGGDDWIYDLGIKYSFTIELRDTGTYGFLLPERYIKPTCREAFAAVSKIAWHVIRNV
Nature of the test: carboxypeptidase U inhibition assay (Hendriks et al., Clinical Chemistry 31, 1936-1939 (1985)). The class given is biochemical. The following applies: assay of Hendriks, Scharpé and van Sande. The text has this:
The inhibiting effect of the compounds of the present invention was estimated using the assay described in: Dirk Hendriks, Simon Scharpé and Marc van Sande, Clinical Chemistry, 31, 1936-1939 (1985); and Wei Wang, Dirk F. Hendriks, Simon S. Scharpé, The Journal of Biological Chemistry, 269, 15937-15944 (1994).
The activities of certain Examples in the assay described in: Dirk Hendriks, Simon Scharpé and Marc van Sande, Clinical Chemistry, 31, 1936-1939 (1985) are presented in Table I below.
What is called IC50 is the midpoint of a concentration-inhibition curve. `Nc1ccc(CC(C(=O)O)C(S)CCc2cccc(Cl)c2)cn1` (stereo not shown) [Example 6, 2-[(6-Aminopyridin-3-yl)methyl]-5-(3-chlorophenyl)-3-mercaptopentanoic acid]: the IC50 worked out at 800 nM.

In turn, `Nc1ccc(CC(C(=O)O)C(S)CCc2ccc3c(c2)OCO3)cn1` (stereo not shown) [Example 7, 2-[(6-Aminopyridin-3-yl)methyl]-5-(1,3-benzodioxol-5-yl)-3-mercaptopentanoic acid] returned an IC50 of 800 nM.

As for `N#CCc1ccc(CCC(S)C(Cc2ccc(N)nc2)C(=O)O)cc1` (stereo not shown) [Example 11, 2-[(6-Aminopyridin-3-yl)methyl]-5-[4-(cyanomethyl)phenyl]-3-mercaptopentanoic acid], the IC50 was found to be 800 nM.

`Nc1ccc(CC(C(=O)O)C(S)CCC2CCCS2)cn1` (stereo not shown) [Example 18, 2-[(6-Aminopyridin-3-yl)methyl]-3-mercapto-5-(tetrahydro-2-thienyl)pentanoic acid]: the IC50 amounted to 1000 nM.

Regarding `Nc1ncc(CC(C(=O)O)C(S)CCc2ccccc2)s1` (stereo not shown) [Example 24, 2-[(2-Amino-1,3-thiazol-5-yl)methyl]-3-mercapto-5-phenylpentanoic acid], the IC50 turned out to be 6300 nM.

The molecule `O=C(O)C(CC1C2CCC1CNC2)C(S)CCc1ccccc1` (stereo not shown) [Example 25, 2-(3-Azabicyclo[3.2.1]oct-8-ylmethyl)-3-mercapto-5-phenylpentanoic acid] returned an IC50 of 4000 nM. This IC50 is about 1.6-fold lower than that of the molecule before.

Take `Nc1ccc(CC(C(=O)O)C(S)CCc2cccc(C(=O)N3CCc4ccccc4C3)c2)cn1` (stereo not shown) [Example 28, 2-[(6-Aminopyridin-3-yl)methyl]-5-[3-(3,4-dihydroisoquinolin-2(1H)-ylcarbonyl)phenyl]-3-mercaptopentanoic acid]: the IC50 was 800 nM.

Take `Nc1ccc(CC(C(=O)O)C(S)CCc2cccc(C(=O)OCCc3c(Cl)cccc3Cl)c2)cn1` (stereo not shown) [Example 31, 2-[(6-Aminopyridin-3-yl)methyl]-5-(3-{[2-(2,6-dichlorophenyl)ethoxy]carbonyl}phenyl)-3-mercaptopentanoic acid]: the IC50 was 600 nM.

Regarding `Nc1ccc(CC(C(=O)O)C(S)CCc2cccc(C(=O)NCCF)c2)cn1` (stereo not shown) [Example 33, 2-[(6-Aminopyridin-3-yl)methyl]-5-(3-{[(2-fluoroethyl)amino]carbonyl}phenyl)-3-mercaptopentanoic acid], the IC50 is 600 nM.

`CN(Cc1ccccc1)C(=O)c1cccc(CCC(S)C(Cc2ccc(N)nc2)C(=O)O)c1` (stereo not shown) [Example 41]: the IC50 turned out to be 600 nM. This counts as sub-micromolar.

As for `Nc1ccc(CC(C(=O)O)C(S)CCc2cccc(C(=O)N3CCCC3)c2)cn1` (stereo not shown) [Example 42, 2-[(6-Aminopyridin-3-yl)methyl]-3-mercapto-5-[3-(pyrrolidin-1-ylcarbonyl)phenyl]pentanoic acid], the IC50 stood at 600 nM.

Consider `CCOC(=O)C1CCN(C(=O)c2cccc(CCC(S)C(Cc3ccc(N)nc3)C(=O)O)c2)CC1` (stereo not shown) [Example 43, 2-[(6-Aminopyridin-3-yl)methyl]-5-(3-{[4-(ethoxycarbonyl)piperidin-1-yl]carbonyl}phenyl)-3-mercaptopentanoic acid], for which the IC50 was found to be 2000 nM.

Molecule `CN(CC#N)S(=O)(=O)c1cccc(CCC(S)C(Cc2ccc(N)nc2)C(=O)O)c1` (stereo not shown) [Example 47, 2-[(6-Aminopyridin-3-yl)methyl]-5-(3-{[(cyanomethyl)(methyl)amino]-sulfonyl}phenyl)-3-mercaptopentanoic acid] came in with an IC50 of 1000 nM.
